From patent US9890176B2, “Mannose derivatives for treating bacterial infections” (Vertex Pharmaceuticals Incorporated, priority 2013, dated 2018)

Tested on: bacterial strain LF82 binding to the glycoprotein BSA-(Mannose)3
Assay: Bacterial Binding Assay (BBA)
Assay type: cell-based, Escherichia coli
Conditions: read-out: Bacterial Binding Assay IC50
Text: The purpose of the Bacterial Binding Assay (BBA) is to determine the inhibition activity of selective FimH antagonists on the bacterial strain LF82 binding to the glycoprotein BSA-(Mannose)3.
Below is a list of the Materials used to run the BBA are described below. • 1. LB broth: Supplier: Gibco, #10855 • 2. D-PBS: Supplier: Wisent, #311-425-CL • 3. LB agar plates • 4. 96-well black plate (high binding): Supplier: Costar, #3925 • 5. TopSeal™-A adhesive sealing films; Supplier PerkinElmer, #6005185 • 6. Carbonate-bicarbonate buffer pH 9.6 tablets, Supplier: Medicago, #09-8922-24 • 7. Water, Supplier: Gibco, #15230-162 • 8. Bovine serum albumin (BSA): Supplier: Sigma, #A-7888 • 9. (Man)-3-BSA (α1-3, α1-6 Mannotriose-BSA, 1 mg), V-Labs, #NGP1336, lot#HGDX37-169-1 • 10. Tween 20: Supplier: Sigma, #P9416 • 11. Bright-Glo Luciferase Assay System: Supplier: Promega, #E2610 • 12. LF82/Luciferase strain: Invasive ability of an Escherichia coli strain isolated from the ileal mucosa of a patient with Crohn's disease. Boudeau J, Glasser A L, Masseret E, Joly B, Darfeuille-Michaud A, Infect Immun. 1999, 67(9), 4499-509
Solutions and buffers used to run the BBA are described below. • 1. 0.04M carbonate-bicarbonate buffer (coating buffer) • 2. […] 1 mg of (Man)-3-BSA in 25 mL of water. • 3. 4000 ng/mL BSA • 4. 40 ng/mL BSA • 5. 1 μg/mL BSA-(Man)3: 150 μL of 40 ng/mL BSA-(Man)3+5.85 mL of 40 ng/mL BSA • 6. 0.5 μg/mL BSA-(Man)3 in 0.02M carbonate-bicarbonate buffer. • 7. 20 ng/mL BSA in 0.02M carbonate-bicarbonate buffer • 8. Blocking buffer (2% BSA/DPBS): 1 g of BSA in 50 mL D-PBS • 9. 2× binding buffer (0.2% BSA/D-PBS): 5 mL of blocking buffer+45 mL D-PBS. • 10. Washing buffer (D-PBS/0.01% Tween 20): 10 μL of Tween 20 in 100 mL D-PBS. • 11. 1× Bright-Glo Luciferase substrate:Dilute 1:1 the Bright-Glo Luciferase Assay System with D-PBS The experimental protocol to run the BBA is described below.
Overnight culture of LF82/Luciferase strain: Into two Falcon 50 mL tubes, add 20 mL of LB+20 μL of 50 mg/mL Kanamycin and inoculate with a loop from glycerol stock of the LF82/Luciferase strain. Incubate overnight at 37° C. with no shaking.
Glycoprotein coating of 96-well plates: Add 100 μL/well of 0.5-2 μg/mL BSA-(Man)3. 20 μg/mL BSA is used as the control background. Seal plate using an adhesive sealing film and incubate overnight at room temperature. Wash the 96-well plate three times with 150 μL/well of D-PBS, add 170 μL/well of blocking solution and incubate 45 min (minimum) at room temperature.
Preparation of bacterial suspension: Mix the two cultures tubes (40 mL) and perform a 1:10 dilution in LB (900 μl LB+100 μl culture. Measure optical density (OD) of the bacterial cultures. OD1 ˜5×10^8 cells/mL. Centrifuge LF82 culture for 20 min at 3500 rpm at room temperature. Re-suspend bacterial pellet in D-PBS and centrifuge again for 20 min at 3500 rpm. Re-suspend bacterial pellet in D-PBS to obtain a bacterial concentration of 2×10^9 bacteria/mL. Dilute 1/10 in D-PBS to obtain a final bacterial concentration of 2×10^8 bacteria/mL (=107 bacteria/50 μL). Perform 1/10 serial dilutions in LB of each bacterial suspension, plate 10 μL of dilutions on LB agar plates (final dilutions of 10^−7) and incubate overnight at 37° C. and count CFUs to determine the actual bacteria density in the assay.
Bacterial binding assay: Add 147 μL 2× binding buffer to compound plate (containing 3 μL of compound). After blocking step is performed (at least 45 min), wash plates three times with 200 μL/well of D-PBS. With a 100 μL multichannel manual pipettor, add 50 μL/well of compound diluted in 2× binding buffer. With a 100 μL multichannel manual pipettor, add 50 μL/well of bacterial suspension. Agitate at slow speed for 1 min and incubate 40-75 min at room temperature. Wash 5 times with 150 μL/well of washing buffer and then once with D-PBS. Add 100 μL/well of 1× Bright-Glo Luciferase substrate. […]

| Structure (SMILES) | IC50 |
| --- | --- |
| Cc1cc(-c2cc(-c3ccc(O[C@H]4O[C@H](CO)[C@@H](O)[C@H](O)[C@]4(C)O)c(C)c3)cc(-c3ccc(O[C@H]4O[C@H](CO)[C@@H](O)[C@H](O)[C@]4(C)O)c(C)c3)c2)ccc1O[C@H]1O[C@H](CO)[C@@H](O)[C@H](O)[C@]1(C)O [Example 118, (2R,3S,4S,5S,6R)-2-[4-[3,5-bis[3-methyl-4-[(2R,3S,4S,5S,6R)-3,4,5-trihydroxy-6-(hydroxymethyl)-3-methyl-tetrahydropyran-2-yl]oxy-phenyl]phenyl]-2-methyl-phenoxy]-6-(hydroxymethyl)-3-methyl-tetrahydropyran-3,4,5-triol] | 2 ± 0.7 nM |
| CNC(=O)c1cccc(-c2ccc(O[C@H]3O[C@H](CO)[C@@H](O)[C@H](O)[C@@]3(O)COCCO)c(C)c2)c1 [Compound 50] | 830 ± 170 nM |
| CNC(=O)c1cccc(-c2ccc(O[C@H]3O[C@H](CO)[C@@H](O)[C@H](O)[C@]3(C)O)cc2C(F)(F)F)c1 [Compound 43] | 785 ± 474 nM |
| Cc1cc(C2CC2c2ccc(O[C@H]3O[C@H](CO)[C@@H](O)[C@H](O)[C@]3(C)O)c(C)c2)ccc1O[C@H]1O[C@H](CO)[C@@H](O)[C@H](O)[C@]1(C)O (stereo partly drawn) [Example 123, (2R,3S,4S,5S,6R)-6-(hydroxymethyl)-3-methyl-2-[2-methyl-4-[2-[3-methyl-4-[(2R,3S,4S,5S,6R)-3,4,5-trihydroxy-6-(hydroxymethyl)-3-methyl-tetrahydropyran-2-yl]oxy-phenyl]cyclopropyl]phenoxy]tetrahydropyran-3,4,5-triol] | 1 ± 0.5 nM |
| Cc1cc(-c2ccc(O[C@H]3O[C@H](CO)[C@@H](O)[C@H](O)[C@]3(C)O)c(C)c2)ccc1F [Compound 87] | 87 ± 33 nM |
| Cc1cc(-c2cccc(C(=O)N[C@@H](CO)[C@@H](C)O)c2)ccc1O[C@H]1O[C@H](CO)[C@@H](O)[C@H](O)[C@]1(C)O [Compound 72] | 36 ± 9 nM |
| CNC(=O)c1cccc(-c2ccc(O[C@H]3O[C@H](CO)[C@@H](O)[C@H](O)[C@]3(C)O)c(Cl)c2)c1 [Example 15, 3-[3-chloro-4-[(2R,3S,4S,5S,6R)-3,4,5-trihydroxy-6-(hydroxymethyl)-3-methyl-tetrahydropyran-2-yl]oxy-phenyl]-N-methyl-benzamide] | 13 ± 2 nM |
| Cc1cc(-c2ccc(F)cc2)ccc1O[C@H]1O[C@H](CO)[C@@H](O)[C@H](O)[C@]1(C)O [Compound 74] | 180 ± 40 nM |
| CNC(=O)c1cccc(-c2ccc(O[C@H]3O[C@H](CO)[C@@H](O)[C@H](O)[C@]3(C)O)cc2OC)c1 [Compound 41] | 220 ± 110 nM |
| CNC(=O)c1ccc(CCO[C@@]2(C)O[C@H](CO)[C@@H](O)[C@H](O)[C@@H]2O)cc1 [compound 35] | 1800 ± 300 nM |
| CNC(=O)c1cccc(-c2cccc(O[C@H]3O[C@H](CO)[C@@H](O)[C@H](O)[C@]3(C)O)c2Cl)c1 [Compound 46] | 126 ± 38 nM |
| Cc1cc(-c2cccc(C(=O)NC(CO)CO)c2)ccc1O[C@H]1O[C@H](CO)[C@@H](O)[C@H](O)[C@]1(C)O [Compound 62] | 9 ± 3 nM |
| Cc1cc(-c2cccc(C(=O)NCCN3CCOCC3)c2)ccc1O[C@H]1O[C@H](CO)[C@@H](O)[C@H](O)[C@]1(C)O [Compound 63] | 12 ± 3 nM |
| Cc1cc(-c2cccc([N+](=O)[O-])c2)ccc1O[C@H]1O[C@H](CO)[C@@H](O)[C@H](O)[C@]1(C)O [Example 18, (2R,3S,4S,5S,6R)-6-(hydroxymethyl)-3-methyl-2-[2-methyl-4-(3-nitrophenyl)phenoxy]tetrahydropyran-3,4,5-triol] | 13 ± 3 nM |
| COc1cc(Cl)c(Cl)cc1-c1ccc(O[C@H]2O[C@H](CO)[C@@H](O)[C@H](O)[C@]2(C)O)c(C)c1 [Compound 100] | 155 ± 25 nM |
| CNC(=O)c1cc(F)cc(-c2ccc(O[C@H]3O[C@H](CO)[C@@H](O)[C@H](O)[C@]3(C)O)c(C)c2)c1 [Compound 73] | 16 ± 5 nM |
| Cc1cc(-c2cccc(-c3ccc(O[C@H]4O[C@H](CO)[C@@H](O)[C@H](O)[C@]4(C)O)c(C)c3)n2)ccc1O[C@H]1O[C@H](CO)[C@@H](O)[C@H](O)[C@]1(C)O [Example 121, (2R,3S,4S,5S,6R)-6-(hydroxymethyl)-3-methyl-2-[2-methyl-4-[6-[3-methyl-4-[(2R,3S,4S,5S,6R)-3,4,5-trihydroxy-6-(hydroxymethyl)-3-methyl-tetrahydropyran-2-yl]oxy-phenyl]-2-pyridyl]phenoxy]tetrahydropyran-3,4,5-triol] | 6 ± 0.8 nM |
| Cc1cc(-c2ccc(O[C@H]3O[C@H](CO)[C@@H](O)[C@H](O)[C@]3(C)O)c(C)c2)ccc1O[C@H]1O[C@H](CO)[C@@H](O)[C@H](O)[C@]1(C)O [Compound 105, (2R,3S,4S,5S,6R)-6-(hydroxymethyl)-3-methyl-2-[2-methyl-4-[3-methyl-4-[(2R,3S,4S,5S,6R)-3,4,5-trihydroxy-6-(hydroxymethyl)-3-methyl-tetrahydropyran-2-yl]oxy-phenyl]phenoxy]tetrahydropyran-3,4,5-triol] | 6 ± 2 nM |
| COc1ccc(Cl)cc1-c1ccc(O[C@H]2O[C@H](CO)[C@@H](O)[C@H](O)[C@]2(C)O)c(C)c1 [Compound 97] | 110 ± 20 nM |
| CNC(=O)c1cccc(-c2ccc(O[C@H]3O[C@H](CO)[C@@H](O)[C@H](O)[C@@]3(O)CN)c(C)c2)c1 [Compound 48] | 605 ± 215 nM |
| Cc1cc(-c2cc(C#N)ccc2C)ccc1O[C@H]1O[C@H](CO)[C@@H](O)[C@H](O)[C@]1(C)O [Compound 101] | 1180 ± 215 nM |
| Cc1cc(-c2cccc(C(=O)N(C)C)c2)ccc1O[C@H]1O[C@H](CO)[C@@H](O)[C@H](O)[C@]1(C)O [Compound 83] | 19 ± 6 nM |
| Cc1cc(-c2cc(F)cc(Cl)c2)ccc1O[C@H]1O[C@H](CO)[C@@H](O)[C@H](O)[C@]1(C)O [Compound 78] | 94 ± 6 nM |
| Cc1cc(-c2cccc(C(=O)NC(C)(CO)CO)c2)ccc1O[C@H]1O[C@H](CO)[C@@H](O)[C@H](O)[C@]1(C)O [Compound 61] | 22 ± 6 nM |
| C[C@@]1(O)[C@@H](Oc2ccc3ccc(O[C@H]4O[C@H](CO)[C@@H](O)[C@H](O)[C@]4(C)O)cc3c2)O[C@H](CO)[C@@H](O)[C@@H]1O [Example 108, (2R,3S,4S,5S,6R)-6-(hydroxymethyl)-3-methyl-2-[[7-[(2R,3S,4S,5S,6R)-3,4,5-trihydroxy-6-(hydroxymethyl)-3-methyl-tetrahydropyran-2-yl]oxy-2-naphthyl]oxy]tetrahydropyran-3,4,5-triol] | 158 ± 61 nM |
| CNC(=O)c1cccc(-c2ccc(O[C@H]3O[C@H](CO)[C@@H](O)[C@H](O)[C@@]3(O)CN=[N+]=[N-])c(C)c2)c1 [Compound 38] | 105 ± 5 nM |
| COc1c(F)cc(F)cc1-c1ccc(O[C@H]2O[C@H](CO)[C@@H](O)[C@H](O)[C@]2(C)O)c(C)c1 [Compound 99] | 38 ± 8 nM |
